{
  "source": "BindingDB's records for doi:10.1021/jm100306a",
  "about": "(University of Pennsylvania, 2010)",
  "molecular_target": "T1, Arginase-1 (Homo sapiens, UniProt P05089)",
  "T1 sequence (P05089 whole entry)": "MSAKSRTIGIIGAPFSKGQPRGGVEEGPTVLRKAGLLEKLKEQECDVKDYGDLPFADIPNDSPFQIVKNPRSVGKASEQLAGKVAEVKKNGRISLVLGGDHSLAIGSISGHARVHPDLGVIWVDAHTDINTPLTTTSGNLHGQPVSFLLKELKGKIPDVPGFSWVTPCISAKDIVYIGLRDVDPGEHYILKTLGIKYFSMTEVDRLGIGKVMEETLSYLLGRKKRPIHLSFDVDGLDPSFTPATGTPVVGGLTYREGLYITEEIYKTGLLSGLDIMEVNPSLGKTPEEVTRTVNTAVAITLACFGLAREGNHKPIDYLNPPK",
  "experiment": "Inhibition of human recombinant full length arginase 1 expressed in Escherichia coli BL21(DE3) by fixed point assay",
  "data": [
    {"compound": "Nc1ncc(CCCC(N)C(=O)O)[nH]1", "note": "(stereo unspecified) [2-amino-5-(2-aminoimidazol-4-yl)pentanoic acid]", "values": [
      {"measurement": "Ki", "result": "> 800", "unit": "mM"}
    ]}
  ]
}
